Reference: patent US5276023A, “19-nor-steroid esters” (Roussel Uclaf, priority 1989, dated 1994)

Tests used:
Glucocorticoid receptor = target: T1, Glucocorticoid receptor (Rattus norvegicus, UniProt P06536); test: relative bond affinity for the glucocorticoid receptor of rat's thymus; type: binding; conditions: tritiated dexamethasone 2.5 nM, RBA=100 (CH)/(CX), reference cold dexamethasone; for relative bond affinity (RBA), Glucocorticoid 4H: 4 hours incubation at 0° C.; for relative bond affinity (RBA), Glucocorticoid 24H: 24 hours incubation at 0° C.
T1 construct: The thymuses were removed and homogenized; from tissue; host or cells: thymus cytosol (105,000 g supernatant) of suprarenalectomized male rats
T1 sequence (P06536 1-795): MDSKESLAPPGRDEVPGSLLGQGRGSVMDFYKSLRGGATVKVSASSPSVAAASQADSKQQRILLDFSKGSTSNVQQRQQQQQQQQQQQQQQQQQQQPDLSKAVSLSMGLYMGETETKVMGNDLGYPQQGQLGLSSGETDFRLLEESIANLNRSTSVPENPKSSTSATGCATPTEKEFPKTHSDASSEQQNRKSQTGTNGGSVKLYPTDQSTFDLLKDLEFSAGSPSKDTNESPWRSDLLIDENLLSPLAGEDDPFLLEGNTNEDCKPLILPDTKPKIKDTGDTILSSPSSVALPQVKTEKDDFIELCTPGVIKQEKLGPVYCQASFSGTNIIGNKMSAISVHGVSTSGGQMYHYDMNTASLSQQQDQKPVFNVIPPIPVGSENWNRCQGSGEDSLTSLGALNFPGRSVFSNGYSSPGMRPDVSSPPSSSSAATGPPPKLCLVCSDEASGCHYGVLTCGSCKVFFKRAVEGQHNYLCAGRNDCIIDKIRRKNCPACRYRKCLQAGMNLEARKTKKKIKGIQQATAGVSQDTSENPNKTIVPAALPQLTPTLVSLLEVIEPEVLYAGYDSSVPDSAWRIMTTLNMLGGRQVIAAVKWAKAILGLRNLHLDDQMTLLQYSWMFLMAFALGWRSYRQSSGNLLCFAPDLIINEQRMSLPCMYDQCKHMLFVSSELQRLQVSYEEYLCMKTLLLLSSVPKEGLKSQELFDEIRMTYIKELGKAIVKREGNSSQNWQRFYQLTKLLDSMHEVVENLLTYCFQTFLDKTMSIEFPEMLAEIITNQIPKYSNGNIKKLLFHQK
Experimental: 1) Measurement of the relative bond affinity for the receptors of steroid hormones:
Glucocorticoid receptor of rat's thymus:
Male rats weighing 160 to 200 g were suprarenalectomized and 4 to 8 days after this removal, the animals were killed. The thymuses were removed and homogenized at 0° C. using a Potter teflon-flask in a (TSD) 10 Mm Tris, 0.25M saccharose, 2 mM dithiothreitol, HCl pH 7.4 buffer (1 g of tissue per 10 ml of TSD). The homogenate was then ultracentrifuged at 105,000 g×90 mn at 0° C. Aliquots of the supernatant "cytosol", were incubated at 0° C. for 4 hours and 24 hours with a constant concentration (T=2.5 nM) of tritiated dexamethasone in the presence of increasing concentrations (0-2,500 nM) of cold dexamethasone or of the cold product under test. The concentration of the bonded tritiated dexamethasone (B) was then measured in each incubate by the technique of adsorption with carbon-dextran.
Calculation of the relative bond affinity:
The calculation of the relative bond affinity (RBA) was identical for all receptors. The following two curves were drawn: the percentage of bonded tritiated hormone B/T as a function of the logarithm of the concentration of the cold reference hormone and B/T as a function of the logarithm of the concentration of the cold product under test. The straight line of the equation:
B max=Percentage of bonded tritiated hormone for an incubation of this tritiated hormone at the concentration (T).
B min=Percentage of bonded tritiated hormone for an incubation of this tritiated hormone at the concentration (T) in the presence of a great excess of cold hormone (2500×10^-9 M).
The intersections of the straight line I50 and the curves allowed the evaluation of the concentrations of the cold reference hormone (CH) and of the cold product under test (CX) which inhibited by 50% the bonding of the tritiated hormone on the receptor. The relative bond affinity (RBA) of the product under test was determined by the equation RBA=100 (CH)/(CX)

rat thymocytes = test: anti-glucocorticoid activity vis-a-vis dexamethasone: incorporation of uridine in rat thymocytes; type: cell-based; conditions: for inhibition at 1 µM / inhibition at 0.1 µM / inhibition at 0.01 µM: Rattus norvegicus, Thymocyte, 3 h; for inhibition at 1 µM / inhibition at 0.1 µM / inhibition at 0.01 µM / % of inhibition of the incorporation of uridine: with 5×10^-8 M dexamethasone, 3 hours at 37° C.; for antiglucocorticoid activity: conclusion in words from the thymocyte study
Text: 2) Anti-glucocorticoid activity vis-a-vis dexamethasone
Incorporation of uridine in rat thymocytes
Glucocorticoids cause an inhibition of the incorporation of nucleosides in lymphoid tissue and the measurement of the incorporation of radio-active uridine in the thymocytes in the presence of a product under test allow its glucocorticoid activity to be evaluated.
It was in accordance with the technique described by Dausse et al (3). The thymus of a suprarenalectomized rat weighing 160 to 180 g was removed, shredded and homogenized slowly using a teflon-flask homogenizer in Hanks solution. The cellular suspension obtained was filtered on gauze and then centrifuged at 800 g×10 mn. A new centrifugation was then carried out at 800 g×10 mn. The deposit was suspended in a nutritive medium (M.E.M. Gibco) and the cellular concentration was adjusted to approximately 20×10^6 cells per ml. Aliquots of 250 ul were then incubated under carbogen for 3 hours at 37° C. with 5×10^-8 M of dexamethasone in the presence or not of increasing concentrations of product (10^-8 M to 10^-6 M). 0.1 uCi of tritiated uridine was then added to each incubate and the incubation was continued for one hour. The incubates were then cooled and 1 ml of a cold solution of trichloracetic acid (TCA) at 5 % weight/volume was added. The precipitates were collected on Whatman GF/C filters and were washed with 4×2 ml of 5% iced TCA. The radioactivity retained on the filters (representing the tritiated uridine incorporated in the thymocytes) was measured using a liquid scintillation spectrometer.

Row | Compound | relative bond affinity (RBA), Glucocorticoid 4H (Glucocorticoid receptor) | relative bond affinity (RBA), Glucocorticoid 24H (Glucocorticoid receptor) | inhibition at 1 µM (rat thymocytes; product at 10^-6 M) | inhibition at 0.1 µM (rat thymocytes; product at 10^-7 M) | inhibition at 0.01 µM (rat thymocytes; product at 10^-8 M) | relative bond affinity (RBA), Glucocorticoid 4H (Glucocorticoid receptor; listed as EX. 5) | relative bond affinity (RBA), Glucocorticoid 24H (Glucocorticoid receptor; listed as EX. 5) | antiglucocorticoid activity (rat thymocytes) | % of inhibition of the incorporation of uridine (rat thymocytes; product at 10^-6 M) | % of inhibition of the incorporation of uridine (rat thymocytes; product at 10^-7 M) | % of inhibition of the incorporation of uridine (rat thymocytes; product at 10^-8 M) | relative bond affinity (RBA), Glucocorticoid 4H (Glucocorticoid receptor; listed as EX. 6) | relative bond affinity (RBA), Glucocorticoid 24H (Glucocorticoid receptor; listed as EX. 6)
1 | CN(C)c1ccc([C@H]2C[C@@]3(C)[C@@H](CC[C@@]3(O)/C=C\COC(=O)CCC(=O)O)[C@@H]3CCC4=CC(=O)CCC4=C32)cc1 [Example 2, Sodium (Z)-3-[11β-[4-dimethylamino-phenyl]-Δ^4,9-estradien-17β-ol-3-one-17α-yl]-2-propenyl succinate] | 62 | 48 | 68% | 1% | 0% |  |  |  |  |  |  |  | 
2 | CN(C)c1ccc([C@H]2C[C@@]3(C)[C@@H](CC[C@@]3(O)C#CCOC(=O)CCC(=O)O)[C@@H]3CCC4=CC(=O)CCC4=C32)cc1 [Example 4, Sodium and 3-[11β-[4-dimethylamino-phenyl]-Δ^4,9-estradien-17β-ol-3-one-17α-yl]-2-propynyl succinate] | 31,5 | 27 | 22% | 2.5% | 0% |  |  |  |  |  |  |  | 
3 | CC#C[C@]1(OC(=O)CCC(=O)O)CC[C@H]2[C@@H]3CCC4=CC(=O)CCC4=C3[C@@H](c3ccc(N(C)C)cc3)C[C@@]21C [Example 5, 11β-[4-dimethylamino-phenyl]-17-(1-propynyl)-Δ^4,9-estradien-3-one-17β-yl acid succinate] |  |  |  |  |  | 28 | 77 | good | 135% | 100% | 28% |  | 
4 | CC#C[C@]1(OC(=O)CCC(=O)O)CC[C@H]2[C@@H]3CCC4=CC(=O)CCC4=C3[C@@H](c3ccc(N(C)C)cc3)C[C@@]21C [Example 6, Sodium 11β-[4-dimethylamino-phenyl]17α-(1-propynyl)-Δ^4,9 - estradien-3-one-17β-yl succinate] |  |  |  |  |  |  |  |  | 78% | 27% | 0% | 26 | 54
5 | CN(C)c1ccc([C@H]2C[C@@]3(C)[C@@H](CC[C@]3(C#CCl)OC(=O)CCC(=O)O)[C@@H]3CCC4=CC(=O)CCC4=C32)cc1 [Example 10, Sodium and 21-chloro-11β-[4-dimethylamino-phenyl]-19-nor-17α-Δ^4,9-pregnadien-3-one-20-yn-17β-yl succinate] | 37 | 77 | 78% | 19% | 0% |  |  |  |  |  |  |  | 
6 | CC#C[C@]1(OC(=O)CCC(=O)O)CC[C@H]2[C@@H]3CCC4=CC(=O)CCC4=C3[C@@H](c3ccc(SC)cc3)C[C@@]21C [Example 12, Sodium and 11β-[4-methylthio-phenyl]-17α-(1-propynyl)-Δ^4,9 estradien-3-one-17β-yl succinate] | 9,5 | 24 | 104% | 62% | 8% |  |  | good |  |  |  |  | 
